Patent US20260001914A1, “MACROCYCLIC PEPTIDES TARGETING KRAS” (Merck Sharp & Dohme LLC, priority 2022, published 2026)
*1 amine or outer side, *2 acyl side, *3 side chain or, on linkers, in order; H or OH if unused. Where a SMILES comes first, the peptide text is derived from it. Bridges are numbered along the chain shown (N, C = ends). [ ]: non-standard residue; d: D form. Phe(4-guanidino) = N=C(N)Nc1ccc(C[C@H](N)C(=O)O)cc1; Ala(pyrimidin-5-yl) = N[C@@H](Cc1cncnc1)C(=O)O; Gly(N-(CH2)3-guanidino) = N=C(N)NCCCNCC(=O)O; Ala(thiazol-5-yl) = N[C@@H](Cc1cncs1)C(=O)O; Bip = N[C@@H](Cc1ccc(-c2ccccc2)cc1)C(=O)O; X25 = O=C([C@H](Cc1ccc(F)nc1)N[*:1])[*:2]; X62 = O=C([C@@H]1CC[C@H](N[*:1])C1)[*:2]; X10 = CS(=O)(=O)CCCCN(CC(=O)[*:2])[*:1]; X30 = O=C([C@H](Cc1ncccc1F)N[*:1])[*:2]; 1Nal = N[C@@H](Cc1cccc2ccccc12)C(=O)O; NHCH2CH2SCH2CO = O=C(CSCCN[*:1])[*:2]; X47 = O=C([C@H](Cc1ccoc1)N[*:1])[*:2]; Phe(2-F) = N[C@@H](Cc1ccccc1F)C(=O)O; NMe3Pal = CN[C@@H](Cc1cccnc1)C(=O)O; X1 = O=C(C12CC(CN[*:1])(C1)C2)[*:2]; hTyr = N[C@@H](CCc1ccc(O)cc1)C(=O)O; X17 = O=C([C@H](CCCCF)N[*:1])[*:2]; NMeF = CN[C@@H](Cc1ccccc1)C(=O)O; PhLac = O=C(O)[C@@H](O)Cc1ccccc1; 3Pal = N[C@@H](Cc1cccnc1)C(=O)O; d(αMeC) = C[C@@](N)(CS)C(=O)O; Ahp(2) = CCCCC[C@H](N)C(=O)O; Cba = N[C@@H](CC1CCC1)C(=O)O; hLys = NCCCCC[C@H](N)C(=O)O; αMeC = C[C@](N)(CS)C(=O)O; NMeA = CN[C@@H](C)C(=O)O; Nle = CCCC[C@H](N)C(=O)O

Biological target: KRAS-G12D protein (Homo sapiens, UniProt P01116, G12D)
Sequence (P01116 1-188 isoform P01116-2 G12D): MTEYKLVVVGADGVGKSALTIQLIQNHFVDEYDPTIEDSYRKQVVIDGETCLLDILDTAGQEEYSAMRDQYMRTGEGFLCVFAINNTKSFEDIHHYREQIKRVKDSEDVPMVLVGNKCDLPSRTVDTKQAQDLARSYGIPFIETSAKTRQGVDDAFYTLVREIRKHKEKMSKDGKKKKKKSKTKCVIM
Test: SOS-mediated nucleotide exchange assay (BODIPY-GDP / Tb-streptavidin TR-FRET)
Format: biochemical

Compound | EC50 [nM]
CCCC[C@@H]1NC(=O)[C@H](Cc2ccc(F)nc2)NC(=O)[C@H](C)N(C)C(=O)[C@H](Cc2ccccc2)OC(=O)C23CC(CNC(=O)[C@H](Cc4ccccc4)N(C)C(=O)[C@H](CCCC)NC(=O)[C@H](Cc4ncccc4F)NC1=O)(C2)C3 [compound 228, cyclo(FLac-NMeA-4F3Pal-Nle-2Pal6F-Nle-NMeF-amBCP)] (cyclo([NMeA][X25][Nle][X30][Nle][NMeF][X1][PhLac])) | 870
COc1ccc(C[C@@H]2NC(=O)[C@H](CC3CCC3)NC(=O)[C@H](Cc3cccnc3)NC(=O)[C@H](CCCNC(=N)N)NC(=O)[C@H](Cc3ccccc3)NC(=O)CSC[C@](C)(C(N)=O)NC(=O)[C@@H]3CCCCCCC[C@H](NC2=O)C(=O)N3C)cc1 [SEQ ID NO: 192, cyclo(F-R-3Pal-cBuA-TyrOMe-AheNMeHag-aMeC-C1Ac)] | 127
CCCC[C@@H]1NC(=O)[C@H](CCCCCN)NC(=O)[C@H](CCCNC(=N)N)NC(=O)[C@H](Cc2ccccc2)NC(=O)CSCCNC(=O)[C@H](Cc2ccccc2)N(C)C(=O)[C@H](CCc2ccc(O)cc2)NC(=O)[C@H](Cc2ccc(-c3ccccc3)cc2)NC1=O [compound 194, cyclo(F-R-hK-Nle-Bip-hY-NMeF-Cysteamine-ClAc)] (cyclo([Bip][hTyr][NMeF][NHCH2CH2SCH2CO]FR[hLys][Nle])) | 4490
CCCC[C@@H]1NC(=O)[C@H](Cc2cncnc2)NC(=O)[C@H](C)N(C)C(=O)[C@H](Cc2ccccc2)OC(=O)C23CC(CNC(=O)[C@H](Cc4ccccc4)N(C)C(=O)[C@H](CCCCF)NC(=O)[C@H](Cc4ccccc4F)NC1=O)(C2)C3 [compound 131, cyclo(FLac-NMeA-PyrimAla-Nle-Phe2F-NleF-NMeF-amBCP)] (cyclo([NMeA][Ala(pyrimidin-5-yl)][Nle][Phe(2-F)][X17][NMeF][X1][PhLac])) | 10.1
CCCCC[C@@H]1NC(=O)[C@H](Cc2ccc(OC)cc2)NC(=O)[C@H](CC2CCC2)NC(=O)[C@H](Cc2ccc(NC(=N)N)cc2)NC(=O)CN(CCCNC(=N)N)C(=O)[C@H](Cc2ccccc2)NC(=O)CSC[C@@](C)(C(N)=O)NC(=O)[C@H](Cc2ccccc2)N(C)C1=O [compound 361, cyclo(F-NGnG-Phe4Gn-cBuA-TyrOMe-Ahp-NMeF-aMeCl-ClAc)] ({CH2CO}-F[Gly(N-(CH2)3-guanidino)][Phe(4-guanidino)][Cba]Y(Me)[Ahp(2)][NMeF][αMeC]-NH2; thioether N-8) | 37
CCCCC[C@@H]1NC(=O)[C@H](Cc2ccoc2)NC(=O)[C@H](CC2CCC2)NC(=O)[C@H](Cc2cccnc2)NC(=O)[C@H](CCCNC(=N)N)NC(=O)[C@H](Cc2ccccc2)NC(=O)CSC[C@@](C)(C(N)=O)NC(=O)[C@H](Cc2ccccc2)N(C)C1=O [compound 374, cyclo(F-R-3Pal-cBuA-Ala3Fur-Ahp-NMeF-aMeCl-ClAc)] ({CH2CO}-FR[3Pal][Cba][X47][Ahp(2)][NMeF][αMeC]-NH2; thioether N-8) | 69.8
CCCC[C@@H]1NC(=O)[C@H](Cc2ccc(NC(=N)N)cc2)NC(=O)[C@H](CCCNC(=N)N)NC(=O)[C@H](Cc2cccc3ccccc23)NC(=O)CSC[C@](C)(C(=O)O)NC(=O)[C@H](Cc2ccccc2)N(C)C(=O)[C@H](CCCC)NC(=O)[C@H](Cc2ccc(O)cc2)NC1=O [compound 143, cyclo(INal-R-Phe4Gn-Nlc-Y-Nle-NMeF-daMeC-ClAc)] ({CH2CO}-[1Nal]R[Phe(4-guanidino)][Nle]Y[Nle][NMeF][d(αMeC)]-OH; thioether N-8) | 575
CCCC[C@@H]1NC(=O)[C@H](Cc2cccnc2)NC(=O)CN(CCCCS(C)(=O)=O)C(=O)[C@H](Cc2ccccc2)OC(=O)C23CC(CNC(=O)[C@H](Cc4cccnc4)N(C)C(=O)[C@H](CCCC)NC(=O)[C@H](Cc4ccccc4F)NC1=O)(C2)C3 [compound 407, cyclo(FLac-NOHmsbGly-3Pal-Nle-Phe2F-Nle-NMe3Pal-amBCP)] (cyclo([3Pal][Nle][Phe(2-F)][Nle][NMe3Pal][X1][PhLac][X10])) | 367
CCCC[C@@H]1NC(=O)[C@H](Cc2cccnc2)NC(=O)[C@H](CCCNC(=N)N)NC(=O)[C@H](Cc2ccccc2)NC(=O)[C@@H]2CC[C@@H](C2)NC(=O)[C@H](Cc2ccccc2)N(C)C(=O)[C@H](CCCC)NC(=O)[C@H](Cc2ccc(OC)cc2)NC1=O [compound 203, cyclo(F-R-3Pal-Nle-TyrOMe-Nle-NMeF-bhcLeu)] (cyclo(FR[3Pal][Nle]Y(Me)[Nle][NMeF][X62])) | 193
CCCCC[C@@H]1NC(=O)[C@H](Cc2ccc(OC)cc2)NC(=O)[C@H](CC2CCC2)NC(=O)[C@H](Cc2ccc(C)nc2)NC(=O)[C@H](CCCNC(=N)N)NC(=O)[C@H](Cc2ccccc2)NC(=O)CSC[C@@](C)(C(N)=O)NC(=O)[C@H](Cc2ccccc2)N(C)C1=O [compound 364, cyclo(F-R-4Me3Pal-cBuA-TyrOMe-Ahp-NMeF-aMeCl-ClAc)] | 33.5
CCCCC[C@@H]1NC(=O)[C@H](Cc2ccc(OC)cc2)NC(=O)[C@H](CC2CCC2)NC(=O)[C@H](Cc2cncs2)NC(=O)[C@H](CCCNC(=N)N)NC(=O)[C@H](Cc2ccccc2)NC(=O)CSC[C@@](C)(C(N)=O)NC(=O)[C@H](Cc2ccccc2)N(C)C1=O [compound 363, cyclo(F-R-TZAla-cBuA-TyrOMe-Ahp-NMeF-aMeCl-ClAc)] ({CH2CO}-FR[Ala(thiazol-5-yl)][Cba]Y(Me)[Ahp(2)][NMeF][αMeC]-NH2; thioether N-8) | 13.2
